Patent EP0306300B1, “Pyrrolo(1,2-a)imidazole and imidazo(1,2-a)pyridine derivatives and their use as 5-lipoxygenase pathway inhibitors” (SMITHKLINE BEECHAM CORPORATION, priority 1987, dated 1989)
pIC50: −log10 of the molar value. “Also recorded” adds a separate entry of the source. Read-outs that look alike come from different tables or passages of the source.

Legend:
[1] = tested on: arachidonic acid-induced edema in mice; assay: Arachidonic acid-induced mouse ear inflammation (ear swelling); format: in vivo, male Balb/c mice; details: for inhibition at 50 mg/kg: Mus musculus, po, 1 h, 50 mg/kg p.o., ear thickness one hour after 2 mg arachidonic acid; for antiinflammatory activity: p.o.
Procedure: In the tests used to determine activity as 5-lipoxygenase pathway inhibitors, male Balb/c mice (20-28 g), were used. All mice were obtained from Charles River Breeding Laboratories, Kingston, N.Y. Within a single experiment, mice were age matched.
Reagents were employed as follows: Compounds of Formula (I) were each used as the free base. The compounds were homogenized in 0.5% tragacanth. Compounds were administered by […] at the indicated dose in a final volume of 10 ml/kg.
Arachidonic acid in acetone (2 mg/20 »l) was applied to the inner surface of the left ear. The thickness of both ears was then measured with a dial micrometer one hour after treatment, and the data were expressed as the change in thickness (10⁻³ cm) between treated and untreated ears.
Test compounds were given orally in acid/saline at the times indicated in the text prior to the topical application of arachidonic acid.
Dermatol., 82, 367-371 (1984)].

[2] = Cytochrome P-450 inhibition (ethoxycoumarin-O-deethylase activity, phenobarbital-induced microsomes); details: rat
5-Lipoxygenase = molecular target: T1, 5-Lipoxygenase (Rattus norvegicus, UniProt P12527); assay: Assay of 5-lipoxygenase activity in RBL-1 high speed supernatant; format: biochemical; details: read-out: 5-LO IC50
T1 construct: the supernatant was centrifuged at 100,000 x g for 60 min; host or cells: RBL-1 cells (soluble cell extract, high-speed supernatant)
T1 sequence (P12527 1-673): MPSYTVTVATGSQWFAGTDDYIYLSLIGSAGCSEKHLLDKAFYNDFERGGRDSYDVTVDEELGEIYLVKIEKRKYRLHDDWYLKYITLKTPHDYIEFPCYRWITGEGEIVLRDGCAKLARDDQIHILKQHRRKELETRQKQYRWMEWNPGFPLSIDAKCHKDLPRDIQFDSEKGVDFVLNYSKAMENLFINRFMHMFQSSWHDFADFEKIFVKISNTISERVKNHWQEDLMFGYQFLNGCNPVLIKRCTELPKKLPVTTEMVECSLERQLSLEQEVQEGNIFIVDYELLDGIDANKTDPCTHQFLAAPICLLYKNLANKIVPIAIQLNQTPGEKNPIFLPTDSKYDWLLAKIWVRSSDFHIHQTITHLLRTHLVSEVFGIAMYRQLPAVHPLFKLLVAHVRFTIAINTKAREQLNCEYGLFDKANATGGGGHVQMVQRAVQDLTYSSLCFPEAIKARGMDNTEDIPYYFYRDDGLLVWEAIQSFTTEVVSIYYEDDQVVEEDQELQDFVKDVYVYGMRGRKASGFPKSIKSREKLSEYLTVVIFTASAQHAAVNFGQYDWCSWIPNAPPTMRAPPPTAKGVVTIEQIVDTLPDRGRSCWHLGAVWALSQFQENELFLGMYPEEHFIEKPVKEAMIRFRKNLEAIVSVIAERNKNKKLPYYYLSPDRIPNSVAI
Procedure: For in vitro experiments, compounds were dissolved at appropriate concentrations in ethanol (final concentration 1.0%) and then diluted to final concentrations using the buffers indicated in the text.
The activities of these enzymes in extracts of RBL-1 cells were assayed using the method of Jakschik and Lee, Nature, 287, 51-52 (1980). RBL-1 cells were obtained from the American Type Culture Collection (#CRL 1378) and were grown at 37°C (5% CO₂ in air) in spinner culture in MEM supplemented with 10% heat inactivated fetal calf serum. Harvested cells were washed with 50 mM sodium phosphate buffer, pH 7.0, containing 1 mM EDTA and 0.1% gelatin, resuspended in fresh buffer (5 x 10⁷ cells/ml) and disrupted by nitrogen cavitation using the Parr bomb at 750 psi for 10 min. The broken cell extract was then centrifuged at 10,000 x g for 20 minutes (min) and the supernatant was centrifuged at 100,000 x g for 60 min. Aliquots (0.25 mls) of the supernatant were preincubated with or without drugs for 10 min, after which 10 ul CaCl₂ (2 mM) was added and the reaction was initiated with 2.5 »l of 2.5 mM arachidonic acid-1-¹⁴C (final concentration was 25 »M; specific activity 20,000 dpm/nmole). After incubation for 5 minutes at 37°C, the reaction was terminated by addition of 2 volumes (0.5 ml) ice cold acetone and the sample was allowed to deproteinize on ice for 10 minutes prior to centrifugation at 1,000 x g for 10 minutes. The deproteinized supernatant was adjusted to pH 3.5 with 2N formic acid and extracted with 2 volumes of ice cold ethyl acetate. The extracted samples were dried under argon, redissolved in ethyl acetate and applied to Whatman LK5D thin layer chromatography (TLC) plates which were developed using the A-9 solvent system [organic phase of ethyl acetate: […]:acetic acid: water (110:50:20:10)] described by Hamberg and Samuelsson, J. Biol. Chem., 241, 257-263 (1966). Arachidonic acid, 5-HETE, LTB₄ and PGD₂ were quantified with a Berthold LB 2832 autoscanner.
Under these conditions, only the 5-lipoxygenase pathway metabolites were detectable. The 5-HETE and di-HETEs were formed at a linear rate, and […] amounts of the arachidonic acid-1-¹⁴C substrate were utilized.

[3] = tested on: arachidonic acid-induced edema in mice; assay: Arachidonic acid-induced mouse ear inflammation (ear swelling); format: in vivo, male Balb/c mice; details: 1 h, 50 mg/kg s.c. or i.p., ear thickness one hour after 2 mg arachidonic acid
[4] = Log D determination by high pressure liquid chromatography; format: physicochemical; details: hplc ods, mobile phase MeOH:H2O, pH 7.4, read-out: (Log D) (Lipophilicity)
Procedure: The procedure used to determine the log D's listed on Table VI was as follows. A 20 »l sample was injected into a Shandon Hypersil ODS, 5» (100 mm x 4.6 mm ID) column and was eluted using a mobile phase of […] MeOH:H₂O (The aqueous portion was .01 M in KH₂PO₄ and adjusted to pH 7.4 with KOH after mixing the MeOH), at a flow rate of 2 ml per minute. Eluting peaks were detected by UV absorbance at […]. All samples were made up at 0.1 mg/ml. (Retentions were identical at 0.01 mg/ml.)
The data was analyzed by determining the regression line corresponding to the log k′ vs. literature log P of the reference standards.
The reference standards and their literature log P's included NaNO₂, 0.0; acetanalide, 1.16; acetophenone, 1.66; anisole, 2.08; chlorobenzene, 2.84; benzophenone, 3.18; anthracene, 4.45; and pentachlorobenzene, 5.12.

cynomolgus monkeys = assay: CNS activity / oral toxicity in cynomolgus monkeys; details: cynomolgus monkey, in vivo
Procedure: Additional monkeys tolerated repeated doses of 45 mg/kg or 30 mg/kg and one animal tolerated an escalating dose schedule of 30-90-120 mg/kg.
The two monkeys administered 400 mg/kg were repeatedly administered this dose for 7 consecutive days; each animal experienced emesis within 1 to 5 hours of dosing after the 1st, 3rd and 4th doses, whereas only the female experienced emesis after the 5th, 6th and 7th doses. A complete necropsy, serum clinical chemistry, hematology and histological examination was completed on both monkeys.

[5] = total HETE and Di-HETE production by RBL-1 high speed supernatant
[6] = LTB4 production by RBL-1 high speed supernatant

Structure (SMILES) | inhibition at 50 mg/kg [1] | inhibition at 50 mg/kg [3] | also measured
CC[S+]([O-])c1ccc(-c2nc3n(c2-c2ccncc2)CCC3)cc1 (stereo not shown) [Compound 15, 2-(4-Ethylsulfinylphenyl)-3-(4-pyridyl)-6,7-dihydro-[5H]-pyrrolo[1,2-a]imidazole] | 41% | – | pIC50 ([2]; liver microsomes): < 4.00; pIC50 (5-Lipoxygenase; [5]): < 4.00
COc1ccc(-c2nc3n(c2-c2ccnc(C)c2)CCC3)cc1 [Compound 23] | – | – | pIC50 ([2]; liver microsomes): 4.25
CCSc1ccc(-c2nc3n(c2-c2ccncc2)CCC3)cc1 [Compound 14, 2-(4-Ethylthiophenyl)-3-(4-pyridyl)-6,7-dihydro-[5H]-pyrrolo[1,2-a]imidazole] | 56% | – | pIC50 ([2]; liver microsomes): 4.55; pIC50 (5-Lipoxygenase; [5]): 4.52
COc1ccc(-c2nc3n(c2-c2cccnc2)CCC3)cc1 [Compound 5] | – | 34% | pIC50 ([2]; microsomes): < 4.00
CC(C)Oc1ccc(-c2nc3n(c2-c2ccncc2)CCC3)cc1 [Compound 10] | 43% | – | pIC50 ([2]; microsomes): 5.60
CC(C)(C)C(=O)Sc1ccc(-c2nc3n(c2-c2ccncc2)CCC3)cc1 [Compound 12, 2-(4-Trimethylacetylthiophenyl)-3-(4-pyridyl)-6,7-dihydro-[5H]-pyrrolo[1,2-a]imidazole] | 45% | – | pIC50 (5-Lipoxygenase; [5]): 5.22
COc1ccc(-c2nc3n(c2-c2ccnc(C)c2)CCC3)cc1 [Compound 22, 2-(4-methoxyphenyl)-3-[4-(2-methyl)pyridyl]-6,7-dihydro-[5H]-pyrrolo[1,2-a]imidazole] | 56% | 57% | –
C[S+]([O-])c1ccc(-c2c(-c3ccncc3)nc3n2CCC3)cc1 (stereo not shown) [Compound 19] | 52% | 56% | –
Cc1cc(-c2c(-c3ccc([S+](C)[O-])cc3)nc3n2CCC3)ccn1 (stereo not shown) [Compound 21, 2-(4-Methylsulfinylphenyl)-3-[4-(2-methyl)pyridyl]-6,7-dihydro-[5H]-pyrrolo[1,2-]imidazole] | 59% | 14% | –
[O-][S+]1CCn2c1nc(-c1ccc(F)cc1)c2-c1ccncc1 (stereo not shown) [B, 5-(4-pyridyl)-6-(4-fluorophenyl)-2,3-dihydroimidazo [2,1-b]thiazole oxide, reference compound] | – | – | chromatographic logD [4]: 1.2; CNS toxicity / adverse CNS effects (comparative statement) (cynomolgus monkeys): reduced CNS toxicity; pIC50 ([2]; liver microsomes): 5.30
CCOC(=O)CSc1ccc(-c2nc3n(c2-c2ccncc2)CCC3)cc1 [Compound 16, 2-(4-Carbethoxymethylthiophenyl)-3-(4-pyridyl)-6,7-dihydro-[5H]-pyrrolo[1,2-a]imidazole] | – | 15% | pIC50 (5-Lipoxygenase; [5]): 4.30
CSc1ccc(-c2c(-c3ccncc3)nc3n2CCC3)cc1 [Compound 18] | 28% | 32% | –
CC(=O)Sc1ccc(-c2nc3n(c2-c2ccncc2)CCC3)cc1 [Compound 11, 2-(4-Acetylthiophenyl)-3-(4-pyridyl)-6,7-dihydro-[5H]-pyrrolo[1,2-a]imidazole] | 46% | – | pIC50 (5-Lipoxygenase; [5]): 4.60
c1cc(-c2cn3c(n2)CCC3)ccn1 [Compound 17] | 20% | 41% | –
COc1ccc(-c2nc3n(c2-c2ccccn2)CCC3)cc1 [Compound 4] | – | 29% | pIC50 (5-Lipoxygenase; [6]): < 4.00
CCCOc1ccc(-c2nc3n(c2-c2ccncc2)CCC3)cc1 [Compound 9] | 42% | – | pIC50 (5-Lipoxygenase; [6]): 5.46; pIC50 (5-Lipoxygenase; [5]): 5.10
CSc1ccc(-c2nc3n(c2-c2ccnc(C)c2)CCC3)cc1 [Compound 20, 2-(4-Methylthiophenyl)-3-[4-(2-methyl)pyridyl]-6,7-dihydro-[5H]-pyrrolo[1,2,a]imidazole] | 59% | 59% | –
CCOc1ccc(-c2nc3n(c2-c2ccncc2)CCC3)cc1 [Compound 8] | 62% | – | pIC50 (5-Lipoxygenase; [6]): 5.22
CS(=O)(=O)c1ccc(-c2nc3n(c2-c2ccncc2)CCC3)cc1 [Compound 3, 2-(4-Methylsulfonylphenyl)-3-(4-pyridyl)-6.7-dihydro-[5H]-pyrrolo[1,2-a]imidazole] | – | 3% | pIC50 ([2]; microsomes): < 4.00; pIC50 (5-Lipoxygenase; [6]): < 4.00
COc1ccc2cc([C@H](C)C(=O)O)ccc2c1 [naproxen, reference compound] | – | – | antiinflammatory activity ([1]; 100 mg/kg): do not exhibit detectable antiinflammatory activity
Oc1ccc(-c2nc3n(c2-c2ccncc2)CCC3)cc1 [Compound 7] | 27% | – | pIC50 (5-Lipoxygenase; [6]): 4.77
COc1ccc2c(c1)c(CC(=O)O)c(C)n2C(=O)c1ccc(Cl)cc1 [indomethacin, reference compound] | – | – | antiinflammatory activity ([1]; 10 mg/kg): did not reduce inflammation; also recorded: do not exhibit detectable antiinflammatory activity
CC(C)Cc1ccc(C(C)C(=O)O)cc1 (stereo not shown) [ibuprofen, reference compound] | – | – | antiinflammatory activity ([1]; 250 mg/kg): do not exhibit detectable antiinflammatory activity
CC(=O)OCSc1ccc(-c2nc3n(c2-c2ccncc2)CCC3)cc1 [Compound 13, 2-(4-Acetoxymethylthiophenyl)-3-(4-pyridyl)-6,7-dihydro-[5H]-pyrrolo[1,2-a]imidazole] | 51% | – | pIC50 (5-Lipoxygenase; [5]): 4.33
